In PubChem BioAssay (NCI):
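GI50 marks 50% less growth. Definition used: TGI = concentration required for complete inhibition of growth.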

Legend:
Assay in all cases: DTP human tumour cell line panel, 384-well format
OVCAR-4 ovarian = test system: OVCAR-4 ovarian
IGROV1 ovarian = test system: IGROV1 ovarian
MCF7 breast = test system: MCF7 breast
HCT-15 colon = test system: HCT-15 colon
T-47D breast = test system: T-47D breast
HCC-2998 colon = test system: HCC-2998 colon
EKVX NSCLC = test system: EKVX NSCLC
MOLT-4 leukemia = test system: MOLT-4 leukemia
SK-MEL-5 melanoma = test system: SK-MEL-5 melanoma
RPMI-8226 leukemia = test system: RPMI-8226 leukemia
NCI/ADR-RES ovarian = test system: NCI/ADR-RES ovarian
DU-145 prostate = test system: DU-145 prostate
OVCAR-3 ovarian = test system: OVCAR-3 ovarian
MDA-MB-231 breast = test system: MDA-MB-231 breast
SN12C renal = test system: SN12C renal
NCI-H522 lung = test system: NCI-H522 lung
MDA-MB-468 breast = test system: MDA-MB-468 breast
SR leukemia = test system: SR leukemia
LOX IMVI melanoma = test system: LOX IMVI melanoma
RXF 393 renal = test system: RXF 393 renal
NCI-H322M lung = test system: NCI-H322M lung
SK-MEL-28 melanoma = test system: SK-MEL-28 melanoma
SNB-19 CNS = test system: SNB-19 CNS
A498 renal = test system: A498 renal
HL-60(TB) leukemia = test system: HL-60(TB) leukemia
CAKI-1 renal = test system: CAKI-1 renal
MDA-MB-435 melanoma = test system: MDA-MB-435 melanoma
ACHN renal = test system: ACHN renal
SK-OV-3 ovarian = test system: SK-OV-3 ovarian
TK-10 renal = test system: TK-10 renal
NCI-H226 lung = test system: NCI-H226 lung
NCI-H460 NSCLC = test system: NCI-H460 NSCLC
BT-549 breast = test system: BT-549 breast
M14 melanoma = test system: M14 melanoma
HT29 colon = test system: HT29 colon
UACC-62 melanoma = test system: UACC-62 melanoma
COLO 205 colon = test system: COLO 205 colon
HS 578T breast = test system: HS 578T breast
HOP-62 NSCLC = test system: HOP-62 NSCLC
SNB-75 CNS = test system: SNB-75 CNS
SF-539 CNS = test system: SF-539 CNS
SF-268 CNS = test system: SF-268 CNS
UACC-257 melanoma = test system: UACC-257 melanoma
HCT-116 colon = test system: HCT-116 colon
KM12 colon = test system: KM12 colon
HOP-92 NSCLC = test system: HOP-92 NSCLC
U251 glioblastoma = test system: U251 glioblastoma
A549 NSCLC = test system: A549 NSCLC
PC-3 prostate = test system: PC-3 prostate

## N#CCCNc1nonc1-c1nc2ccccc2n1CC(=O)c1ccc(N)cc1
OVCAR-4 ovarian
  GI50: < 0.01 µM
  TGI: 2.33 µM
IGROV1 ovarian
  GI50: 0.0195 µM
  TGI: 39.3 µM
MCF7 breast
  GI50: < 0.01 µM
  TGI: > 100 µM
HCT-15 colon
  GI50: 0.0167 µM
  TGI: 0.0486 µM
T-47D breast
  GI50: 1.87 µM
  TGI: > 100 µM
HCC-2998 colon
  GI50: 0.015 µM
  TGI: 0.0475 µM
EKVX NSCLC
  GI50: < 0.01 µM
  TGI: > 100 µM
MOLT-4 leukemia
  GI50: 0.0192 µM
  TGI: 0.0337 µM
SK-MEL-5 melanoma
  GI50: < 0.01 µM
  TGI: 0.017 µM
RPMI-8226 leukemia
  GI50: < 0.01 µM
  TGI: 0.0222 µM
NCI/ADR-RES ovarian
  GI50: < 0.01 µM
  TGI: < 0.01 µM
DU-145 prostate
  GI50: 0.0208 µM
  TGI: 0.0474 µM
OVCAR-3 ovarian
  GI50: < 0.01 µM
  TGI: 0.014 µM
MDA-MB-231 breast
  GI50: 0.059 µM
  TGI: > 100 µM
SN12C renal
  GI50: 0.0122 µM
  TGI: 0.0882 µM
NCI-H522 lung
  GI50: < 0.01 µM
  TGI: < 0.01 µM
MDA-MB-468 breast
  GI50: < 0.01 µM
  TGI: < 0.01 µM
SR leukemia
  GI50: < 0.01 µM
  TGI: < 0.01 µM
LOX IMVI melanoma
  GI50: 0.019 µM
  TGI: 0.0442 µM
RXF 393 renal
  GI50: < 0.01 µM
  TGI: 10.3 µM
NCI-H322M lung
  GI50: 0.0531 µM
  TGI: > 100 µM
SK-MEL-28 melanoma
  GI50: 0.101 µM
  TGI: > 100 µM
SNB-19 CNS
  GI50: < 0.01 µM
  TGI: 0.092 µM
A498 renal
  GI50: < 0.01 µM
  TGI: 0.0365 µM
HL-60(TB) leukemia
  GI50: < 0.01 µM
  TGI: 0.016 µM
CAKI-1 renal
  GI50: < 0.01 µM
  TGI: > 100 µM
MDA-MB-435 melanoma
  GI50: < 0.01 µM
  TGI: < 0.01 µM
ACHN renal
  GI50: < 0.01 µM
  TGI: 37.3 µM
SK-OV-3 ovarian
  GI50: < 0.01 µM
  TGI: > 100 µM
TK-10 renal
  GI50: < 0.01 µM
  TGI: > 100 µM
NCI-H226 lung
  GI50: < 0.01 µM
  TGI: 0.0228 µM
NCI-H460 NSCLC
  GI50: < 0.01 µM
  TGI: 0.02 µM
BT-549 breast
  GI50: < 0.01 µM
  TGI: 0.035 µM
M14 melanoma
  GI50: < 0.01 µM
  TGI: 0.021 µM
HT29 colon
  GI50: 0.021 µM
  TGI: > 100 µM
UACC-62 melanoma
  GI50: < 0.01 µM
  TGI: > 100 µM
COLO 205 colon
  GI50: 0.0207 µM
  TGI: 0.0566 µM
HS 578T breast
  GI50: < 0.01 µM
  TGI: 0.0114 µM
HOP-62 NSCLC
  GI50: < 0.01 µM
  TGI: 0.503 µM
SNB-75 CNS
  GI50: 0.012 µM
  TGI: > 100 µM
SF-539 CNS
  GI50: < 0.01 µM
  TGI: 0.0257 µM
SF-268 CNS
  GI50: < 0.01 µM
  TGI: 51.1 µM
UACC-257 melanoma
  GI50: < 0.01 µM
  TGI: > 100 µM
HCT-116 colon
  GI50: < 0.01 µM
  TGI: > 100 µM
KM12 colon
  GI50: < 0.01 µM
  TGI: > 100 µM
HOP-92 NSCLC
  GI50: 0.0305 µM
  TGI: > 100 µM
U251 glioblastoma
  GI50: < 0.01 µM
  TGI: 0.0407 µM
A549 NSCLC
  GI50: 0.0227 µM
  TGI: > 100 µM
PC-3 prostate
  GI50: 0.0159 µM
  TGI: > 100 µM
